The source made the active and inactive calls. No cut-off for these calls is given here.
Assays:
[1] = system: U-87 MG; assay: Cytotoxicity against human U-87MG cells assessed as reduction in total cell count measured after 96 hrs by Hoechst staining analysis; type: functional, cell-based, U-87MG ATCC
[2] = system: U-87 MG; assay: Cytotoxicity against human U-87MG cells assessed as reduction in total cell count measured after 96 hrs in presence of TMZ by Hoechst staining analysis; type: functional, cell-based, U-87MG ATCC
[3] = system: U-87 MG; assay: Antiproliferative activity against human U-87MG cells assessed as reduction in cell proliferation measured after 48 hrs by EdU-incorporation assay; type: functional, cell-based, U-87MG ATCC
[4] = system: U-87 MG; assay: Antiproliferative activity against human U-87MG cells assessed as reduction in cell proliferation measured after 48 hrs in presence of TMZ by EdU-incorporation assay; type: functional, cell-based, U-87MG ATCC
[5] = system: GBM; assay: Cytotoxicity against patient derived human GBM cells assessed as reduction in total cell count measured after 96 hrs by Hoechst staining analysis; type: functional, cell-based
[6] = system: GBM; assay: Cytotoxicity against patient derived human GBM cells assessed as reduction in total cell count measured after 96 hrs in presence of TMZ by Hoechst staining analysis; type: functional, cell-based
[7] = system: GBM; assay: Antiproliferative activity against patient derived human GBM cells assessed as reduction in cell proliferation measured after 48 hrs by EdU-incorporation assay; type: functional, cell-based
[8] = system: GBM; assay: Antiproliferative activity against patient derived human GBM cells assessed as reduction in cell proliferation measured after 48 hrs in presence of TMZ by EdU-incorporation assay; type: functional, cell-based
[9] = system: KNS-42; assay: Cytotoxicity against human KNS-42 cells assessed as reduction in total cell count measured after 96 hrs by Hoechst staining analysis; type: functional, cell-based; conditions: KNS-42, 96 h
[10] = system: KNS-42; assay: Cytotoxicity against human KNS-42 cells assessed as reduction in total cell count measured after 96 hrs in presence of TMZ by Hoechst staining based analysis; type: functional; conditions: KNS-42, 96 h
[11] = system: KNS-42; assay: Antiproliferative activity against human KNS-42 cells assessed as reduction in cell proliferation measured after 48 hrs by EdU-incorporation assay; type: functional, cell-based; conditions: KNS-42, 48 h
[12] = system: KNS-42; assay: Antiproliferative activity against human KNS-42 cells assessed as reduction in cell proliferation measured after 48 hrs in presence of TMZ by EdU-incorporation assay; type: functional, cell-based; conditions: KNS-42, 48 h
[13] = system: GBM; assay: Induction of apoptosis in patient derived human GBM cells assessed as increase in cleaved caspase-3 positive cells at IC50; type: functional, cell-based
[14] = Cytotoxicity against primary brain pericytes (unknown origin); type: cell-based
[15] = Selectivity ratio of EC50 for cytotoxicity against primary brain pericytes (unknown origin) to EC50 for cytotoxicity against patient derived human GBM cells
[16] = system: GBM; assay: Synergistic cytotoxicity against patient derived human GBM cells assessed as combination index at 0.04 nM measured after 96 hrs in presence of TMZ by Hoechst staining based analysis; type: functional
[17] = system: GBM; assay: Synergistic cytotoxicity against patient derived human GBM cells assessed as combination index at 0.2 nM measured after 96 hrs in presence of TMZ by Hoechst staining based analysis; type: functional
[18] = system: GBM; assay: Synergistic cytotoxicity against patient derived human GBM cells assessed as combination index at 1 nM measured after 96 hrs in presence of TMZ by Hoechst staining based analysis; type: functional
[19] = system: GBM; assay: Synergistic cytotoxicity against patient derived human GBM cells assessed as combination index at 5 nM measured after 96 hrs in presence of TMZ by Hoechst staining based analysis; type: functional
[20] = system: GBM; assay: Synergistic cytotoxicity against patient derived human GBM cells assessed as combination index at 25 nM measured after 96 hrs in presence of TMZ by Hoechst staining based analysis; type: functional
[21] = system: GBM; assay: Synergistic cytotoxicity against patient derived human GBM cells assessed as combination index at 125 nM measured after 96 hrs in presence of TMZ by Hoechst staining based analysis; type: functional
[22] = system: GBM; assay: Synergistic cytotoxicity against patient derived human GBM cells assessed as combination index at 800 nM measured after 96 hrs in presence of TMZ by Hoechst staining based analysis; type: functional
[23] = system: GBM; assay: Synergistic cytotoxicity against patient derived human GBM cells assessed as combination index at 4000 nM measured after 96 hrs in presence of TMZ by Hoechst staining based analysis; type: functional
[24] = system: GBM; assay: Synergistic cytotoxicity against patient derived human GBM cells assessed as combination index at 20000 nM measured after 96 hrs in presence of TMZ by Hoechst staining based analysis; type: functional
[25] = system: GBM; assay: Synergistic cytotoxicity against patient derived human GBM cells assessed as combination index at 100000 nM measured after 96 hrs in presence of TMZ by Hoechst staining based analysis; type: functional
[26] = system: U-87 MG; assay: Antagonistic cytotoxicity against human U-87MG cells assessed as combination index at 0.04 nM measured after 96 hrs in presence of TMZ by Hoechst staining based analysis; type: functional, U-87MG ATCC
[27] = system: U-87 MG; assay: Synergistic cytotoxicity against human U-87MG cells assessed as combination index at 0.2 nM measured after 96 hrs by Hoechst staining based analysis; type: functional, U-87MG ATCC
[28] = system: U-87 MG; assay: Antagonistic cytotoxicity against human U-87MG cells assessed as combination index at 1 nM measured after 96 hrs in presence of TMZ by Hoechst staining based analysis; type: functional, U-87MG ATCC
[29] = system: U-87 MG; assay: Synergistic cytotoxicity against human U-87MG cells assessed as combination index at 5 nM measured after 96 hrs by Hoechst staining based analysis; type: functional, U-87MG ATCC
[30] = system: U-87 MG; assay: Antagonistic cytotoxicity against human U-87MG cells assessed as combination index at 25 nM measured after 96 hrs in presence of TMZ by Hoechst staining based analysis; type: functional, U-87MG ATCC
[31] = system: U-87 MG; assay: Synergistic cytotoxicity against human U-87MG cells assessed as combination index at 125 nM measured after 96 hrs by Hoechst staining based analysis; type: functional, U-87MG ATCC
[32] = system: U-87 MG; assay: Synergistic cytotoxicity against human U-87MG cells assessed as combination index at 800 nM measured after 96 hrs by Hoechst staining based analysis; type: functional, U-87MG ATCC
[33] = system: U-87 MG; assay: Synergistic cytotoxicity against human U-87MG cells assessed as combination index at 4000 nM measured after 96 hrs by Hoechst staining based analysis; type: functional, U-87MG ATCC
[34] = system: U-87 MG; assay: Synergistic cytotoxicity against human U-87MG cells assessed as combination index at 20000 nM measured after 96 hrs by Hoechst staining based analysis; type: functional, U-87MG ATCC
[35] = system: U-87 MG; assay: Synergistic cytotoxicity against human U-87MG cells assessed as combination index at 100000 nM measured after 96 hrs by Hoechst staining based analysis; type: functional, U-87MG ATCC
[36] = system: KNS-42; assay: Antagonistic cytotoxicity against human KNS-42 cells assessed as combination index at 0.04 nM measured after 96 hrs in presence of TMZ by Hoechst staining based analysis; type: functional
[37] = system: KNS-42; assay: Synergistic cytotoxicity against human KNS-42 cells assessed as combination index at 0.2 nM measured after 96 hrs by Hoechst staining based analysis; type: functional
[38] = system: KNS-42; assay: Antagonistic cytotoxicity against human KNS-42 cells assessed as combination index at 1 nM measured after 96 hrs in presence of TMZ by Hoechst staining based analysis; type: functional
[39] = system: KNS-42; assay: Synergistic cytotoxicity against human KNS-42 cells assessed as combination index at 5 nM measured after 96 hrs by Hoechst staining based analysis; type: functional
[40] = system: KNS-42; assay: Antagonistic cytotoxicity against human KNS-42 cells assessed as combination index at 25 nM measured after 96 hrs in presence of TMZ by Hoechst staining based analysis; type: functional
[41] = system: KNS-42; assay: Synergistic cytotoxicity against human KNS-42 cells assessed as combination index at 125 nM measured after 96 hrs by Hoechst staining based analysis; type: functional
[42] = system: KNS-42; assay: Synergistic cytotoxicity against human KNS-42 cells assessed as combination index at 800 nM measured after 96 hrs by Hoechst staining based analysis; type: functional
[43] = system: KNS-42; assay: Synergistic cytotoxicity against human KNS-42 cells assessed as combination index at 4000 nM measured after 96 hrs by Hoechst staining based analysis; type: functional
[44] = system: KNS-42; assay: Synergistic cytotoxicity against human KNS-42 cells assessed as combination index at 20000 nM measured after 96 hrs by Hoechst staining based analysis; type: functional
[45] = system: KNS-42; assay: Synergistic cytotoxicity against human KNS-42 cells assessed as combination index at 100000 nM measured after 96 hrs by Hoechst staining based analysis; type: functional

IC50 [3]: 504 nM
IC50 [4]: 194 nM
Structure (SMILES): COc1cc(C(=O)NC2CCCN(C(=O)CCCCCN3/C(=C/C=C4\CCCC(/C=C/C5=[N+](CCCCCC(=O)N6CCCC(NC(=O)c7cc(OC)c(OC)c(OC)c7)C6)c6ccccc6C5(C)C)=C4Cl)C(C)(C)c4ccccc43)C2)cc(OC)c1OC.[Br-] (stereo not given)
EC50 [1]: 394 nM
EC50 [2]: 108 nM
EC50 [5]: 211 nM
EC50 [6]: 90 nM
IC50 [7]: 164 nM
IC50 [8]: 110 nM
EC50 [9]: 394 nM
EC50 [10]: 108 nM
IC50 [11]: 504 nM
IC50 [12]: 194 nM
Activity [13]: Active
EC50 [14]: 3600 nM
Ratio EC50 [15]: 19
CI [16]: 0.323
CI [17]: 0.025
CI [18]: 0.301
CI [19]: 0.551
CI [20]: 0.506
CI [21]: 0.571
CI [22]: 0.287
CI [23]: 0.536
CI [24]: 0.526
CI [25]: 0.248
CI [26]: 5.672
CI [27]: 0.016
CI [28]: 3.406
CI [29]: 0.134
CI [30]: 3.837
CI [31]: 0.268
CI [32]: 0.067
CI [33]: 0.116
CI [34]: 0.052
CI [35]: 0.05
CI [36]: 5.672
CI [37]: 0.016
CI [38]: 3.406
CI [39]: 0.134
CI [40]: 3.837
CI [41]: 0.268
CI [42]: 0.067
CI [43]: 0.116
CI [44]: 0.052
CI [45]: 0.05

Reference: ChEMBL document CHEMBL4808245, “Cytoprotective agent troxipide-cyanine dye conjugate with cytotoxic and antiproliferative activity in patient-derived glioblastoma cell lines” (Bioorg Med Chem Lett, 2021)
